Reference: patent publication US20230416679A1, “METHODS AND COMPOSITIONS FOR IN-VITRO AUGMENTATION OF MILK PRODUCTION FROM MAMMARY EPITHELIAL CELLS” (Wilk Technologies International Ltd., priority 2021, published 2023)
Entries after “also recorded” stand apart in the source; their conditions may differ.

What was measured:
Format in all cases: cell-based
[1] = test system: primary culture of bovine mammary epithelial cells; experiment: Milk lactose secretion to the medium (HPLC, refractive index detector)
From the text: For all the experiments, primary culture of bovine mammary epithelial cells were used. The cells were isolated from 3 lactating Holstein cows according to an established protocol (Cohen et al., 2015 supra). Study protocols were in compliance with the regulations of the Israeli Ministry of Health, under the supervision of the Department for Control of Animal Products, State of Israel Ministry of Agriculture Rural Development Veterinary Services and Animal Health. Certificate Nu: #80. After isolation, 60,000 cells were plated in a 35-mm plastic dish on glass cover slips for all florescence staining experiments. For production analysis, 150,000 cells were plated in a 60-mm plastic dish for lipids, protein, and lactose extraction. […] After 24 h of incubation, medium was collected for triglyceride and phospholipid quantification, and cells were harvested for cell counting, lipid, lactose or protein extraction. […] After treatment, 0.5 ml medium was collected to be analyzed using HPLC equipped with a refractive index detector at 68° C. […] Identification and quantification were determined by establishing a calibration curve of external standard of a known lactose concentration dissolved in water. […]

[2] = test system: primary culture of bovine mammary epithelial cells; experiment: Intracellular lipid droplets fluorescence staining (Nile red / DAPI)
From the text: For all the experiments, primary culture of bovine mammary epithelial cells were used. The cells were isolated from 3 lactating Holstein cows according to an established protocol (Cohen et al., 2015 supra). Study protocols were in compliance with the regulations of the Israeli Ministry of Health, under the supervision of the Department for Control of Animal Products, State of Israel Ministry of Agriculture Rural Development Veterinary Services and Animal Health. Certificate Nu: #80. After isolation, 60,000 cells were plated in a 35-mm plastic dish on glass cover slips for all florescence staining experiments. […] After 24 h of incubation, medium was collected for triglyceride and phospholipid quantification, and cells were harvested for cell counting, lipid, lactose or protein extraction. […] Cover slips were then rinsed four times with PBS and mounted with fluorescence mounting medium (Dako, North America Inc., Carpinteria, CA). Slides were visualized with an Olympus BX40 fluorescence microscope equipped with an Olympus DP73 digital camera using CellSens Entry software (version 1.7, Olympus). Lipid droplet diameter was measured using ImageJ software (version 1.48, NIH, Bethesda, MD). […] The effect of oleic acid on accumulation of fat in primary culture of mammary epithelial cells was determined using Nile red staining (red). […]

[3] = test system: primary culture of bovine mammary epithelial cells; experiment: Milk protein (casein, whey) secretion to the medium (HPLC-UV)
From the text: For all the experiments, primary culture of bovine mammary epithelial cells were used. The cells were isolated from 3 lactating Holstein cows according to an established protocol (Cohen et al., 2015 supra). Study protocols were in compliance with the regulations of the Israeli Ministry of Health, under the supervision of the Department for Control of Animal Products, State of Israel Ministry of Agriculture Rural Development Veterinary Services and Animal Health. Certificate Nu: #80. After isolation, 60,000 cells were plated in a 35-mm plastic dish on glass cover slips for all florescence staining experiments. For production analysis, 150,000 cells were plated in a 60-mm plastic dish for lipids, protein, and lactose extraction. Oxygen consumption assay was performed by using Seahorse system (Agilent, USA); cells were plated in 24-well plate (20,000 cells/well) and incubated with DMEM/F12, with 0.15% (v/v) bovine serum albumin and insulin (1 μg/ml), hydrocortisone (0.5 μg/ml) and prolactin (1 μg/ml) for 48 h to induce lactogenic response. Then cells were treated with three different P. lentiscus extracts: ethyl acetate, hexane and chloroform, according to the protocol that was used before (Azaizeh et al., 2013). The extracts were diluted with DMEM/F12 medium supplemented with Dimethyl Sulfoxide (DMSO) in a final concentration of 0.1% for better dissolution of the extractions. Oleic acid was added to the treatment medium at a final concentration of […] to increase fat (triglycerol) synthesis to better enable the visualization of intracellular lipid droplets. The treatment was given in the presence of insulin (1 μg/ml), hydrocortisone (0.5 μg/ml) and prolactin (1 μg/ml). After 24 h of incubation, medium was collected for triglyceride and phospholipid quantification, and cells were harvested for cell counting, lipid, lactose or protein extraction. Otherwise, cells were fixed for florescence staining or plates taken to seahorse for oxygen consumption rate measurement. After treatment, 0.5 ml cultured medium was collected to HPLC equipped with UV detector. Protein content was determined in 220 nm wavelength by C-18 reverse phase column. Identification and quantification were determined by constructing a calibration curve of external standard of known protein concentrations which dissolved in a 50 mM phosphate buffer (PH=6.7). Identification for α casein, β casein and α lactalbumin were qualified as caseins (α and β casein) and whey (a lactalbumin) protein. Positive values indicate increased protein content whereas negative values indicate decreased protein content.

[4] = test system: primary culture of bovine mammary epithelial cells; experiment: Intracellular triglyceride content in cell lysates (lipid extraction, HPLC-ELSD); conditions: for intracellular triglyceride content: 24 h of treatment (FIG. 7)
From the text: For all the experiments, primary culture of bovine mammary epithelial cells were used. The cells were isolated from 3 lactating Holstein cows according to an established protocol (Cohen et al., 2015 supra). Study protocols were in compliance with the regulations of the Israeli Ministry of Health, under the supervision of the Department for Control of Animal Products, State of Israel Ministry of Agriculture Rural Development Veterinary Services and Animal Health. Certificate Nu: #80. After isolation, 60,000 cells were plated in a 35-mm plastic dish on glass cover slips for all florescence staining experiments. For production analysis, 150,000 cells were plated in a 60-mm plastic dish for lipids, protein, and lactose extraction. Oxygen consumption assay was performed by using Seahorse system (Agilent, USA); cells were plated in 24-well plate (20,000 cells/well) and incubated with DMEM/F12, with 0.15% (v/v) bovine serum albumin and insulin (1 μg/ml), hydrocortisone (0.5 μg/ml) and prolactin (1 μg/ml) for 48 h to induce lactogenic response. Then cells were treated with three different P. lentiscus extracts: ethyl acetate, hexane and chloroform, according to the protocol that was used before (Azaizeh et al., 2013). The extracts were diluted with DMEM/F12 medium supplemented with Dimethyl Sulfoxide (DMSO) in a final concentration of 0.1% for better dissolution of the extractions. […] The treatment was given in the presence of insulin (1 μg/ml), hydrocortisone (0.5 μg/ml) and prolactin (1 μg/ml). […] Otherwise, cells were fixed for florescence staining or plates taken to seahorse for oxygen consumption rate measurement.
After treatment, total lipids were extracted from harvested cells and from collected medium. The medium or the cells were diluted by 20 times Folch reagent (Chloroform-Methanol 2:1). After overnight incubation with cold extraction at 4° C., the upper phase was removed, and the lower phase was filtered through glass wool. Samples were then evaporated under a nitrogen stream at 65° C., diluted in 100 μl chloroform:methanol (97:3, v/v) and stored at −20° C. until injection for HPLC analysis. […] Quantification was performed against external standard curves and expressed as μg/per 10^6 live cells or as weight % out of the sum of phospholipids (μg) in the sample. Live cell number was determined with a hemocytometer after 5 min of trypan blue staining. […]
Cells were incubated with 360 uM oleic acid (O) with or without 1.2 mM beta hydroxybutyrate (BHBA, H). The concentration of triglyceride was measured in cell lysates.

[5] = test system: primary culture of bovine mammary epithelial cells; experiment: Triglyceride / fat secreted to the medium by mammary epithelial cells (Nile red staining, HPLC-ELSD)
From the text: For all the experiments, primary culture of bovine mammary epithelial cells were used. The cells were isolated from 3 lactating Holstein cows according to an established protocol (Cohen et al., 2015 supra). Study protocols were in compliance with the regulations of the Israeli Ministry of Health, under the supervision of the Department for Control of Animal Products, State of Israel Ministry of Agriculture Rural Development Veterinary Services and Animal Health. Certificate Nu: #80. After isolation, 60,000 cells were plated in a 35-mm plastic dish on glass cover slips for all florescence staining experiments. For production analysis, 150,000 cells were plated in a 60-mm plastic dish for lipids, protein, and lactose extraction. […] After 24 h of incubation, medium was collected for triglyceride and phospholipid quantification, and cells were harvested for cell counting, lipid, lactose or protein extraction. […]
After treatment, total lipids were extracted from harvested cells and from collected medium. […] Quantification was performed against external standard curves and expressed as μg/per 10^6 live cells or as weight % out of the sum of phospholipids (μg) in the sample. Live cell number was determined with a hemocytometer after 5 min of trypan blue staining. […]

## O=C(O)c1cc(O)c(O)c(O)c1 [gallic acid]
[1]
  lactose secretion: increases
[2]; gallic acid added to MEC primary culture (FIG. 6)
  size of the intracellular lipid droplets: increased
[3]; 2 ppm, P=0.98
  protein secretion compared to control: did not change
[4]
  intracellular triglyceride content: did not affect

## CCCCCCCC/C=C\CCCCCCCC(=O)O [oleic acid]
[2]; primary MEC, Nile red / Dapi staining (FIG. 2)
  oleic acid concentration at which toxic effect is evident: over 1 mM
[5]; 100 uM oleic acid in the presence of BSA, 24 h, Nile red
  fat content (triglyceride) in medium collected from cells compared with control: higher; also recorded: increases
[4]; 360 uM oleic acid, 48 hours, cell lysates
  increase of triglyceride content in the cells: 4 fold

## O=c1c(O)c(-c2cc(O)c(O)c(O)c2)oc2cc(O)cc(O)c12 [myricetin, Myricetin]
[1]
  lactose secretion: can increase
[5]
  triglyceride secretion: can increase
[3]; 1 ppm, P<0.05, FIG. 7C
  casein secretion, higher than control: 126%
[3]; 1 ppm, P=0.05, FIG. 7D
  whey secretion, higher than control: 124%
[3]; between about 0.5 ppm and about 2.5 ppm, for example 1 ppm
  increase of casein and whey secretion compared with control: 30%
[4]
  intracellular triglyceride content: did not affect

## CC(O)CC(=O)O (stereo not drawn) [BHBA, β-hydroxybutirate]
[4]; 1.2 mM BHBA added to 360 uM oleic acid, 48 hours, cell lysates
  triglyceride content in the cells: ~90 ug/10^6 cells
